The values that follow come from US20090298903A1, “USE OF TETRAMIC ACID DERIVATIVES FOR INSECT CONTROL” (priority 2006, published 2009).

Common to all, as to type: in vivo
For assay [1], the system named is Ceutorhynchus napi. Put plainly: Example 26-A: oilseed rape against Ceutorhynchus napi. Particulars: 55 d after treatment, larvae, Deltamethrin (25 EC) 5, (I-4) (+ 0.2% rapeseed oil methyl ester) 72, Thiacloprid (OD 240) 72, Lambda-cyhalothrin 5 g a.s./ha. As for the experimental part: Plots approx. 25 m^2 in size which are planted with oilseed rape cv. “Artus” are treated, in four replications, against Ceutorhynchus napi. The application is carried out with a motor-operated knapsack sprayer. Here, the active substance Example (I-4), in a tank mix with 0.2% a.s. rapeseed oil methyl ester (500 EW) and the commercial standards Deltamethrin (25 EC), lambda-cyhalothrin (S100) and Thiacloprid (OD 240), is tested at the specified application rates. The water application rate is 250 l/ha.
The test is evaluated 55 days after the treatment by scoring the destruction rate of the larvae on the plants.

The test system of assay [2] is Pegomya spp. Put plainly: Example 17: winter wheat against Pegomya spp. To be noted: 3 days after the last of two treatments (interval 7 days), larvae, Thiacloprid (240 OD) 72, (I-4) (240 SC + 0.2% rapeseed oil methyl ester) 96 g a.s./ha. As for the experimental part: Plots approx. 25 m^2 in size which are planted with winter wheat cv. “Capfern” are treated, in four replications, against Pegomya spp. The application is carried out with a knapsack sprayer which is operated with pressurized air. Here, the active substance Example (I-4) (240 SC), in a tank mix with 0.2% a.s. rapeseed oil methyl ester (500 EW) and the commercial standard Thiacloprid (240 OD), is tested at the specified application rates. Two applications are carried out at an interval of 7 days. The water application rate is 350 l/ha.
The test is evaluated 3 days after the last treatment by scoring the destruction rate of the larvae on the plants.

Assay [3] concerns Caliothrips phaseoli. Put plainly: Example 3: courgettes against Caliothrips phaseoli. To be noted: 8 d after treatment, nymphs on 5 leaves, Endosulfan (350 EC) 525, (I-4) (240 SC + 0.1% rapeseed oil methyl ester) 72 g a.s./ha. The method, then: Plots approx. 22 m^2 in size which are planted with courgettes cv. “Italiana negra” are treated, in three replications, against Caliothrips phaseoli. The application is effected with a motor-driven knapsack sprayer. Here, the active substance Example (I-4) (240 SC), in a tank mix together with 0.1% a.s. rapeseed oil methyl ester (500 EW) and the commercial standard endosulfan (350 EC), is tested at the specified application rates. The water application rate is approx. 510 l/ha.
The test is evaluated 8 days after the treatment by scoring the destruction of the animals (nymphs) on 5 leaves.

The test system of assay [4] is Dasineura pyri. Put plainly: Example 19b): pear trees against Dasineura pyri. Particulars: 9 d after treatment 2, larvae in rolled leaves, Endosulfan (350 EC) 472.5, (I-4) as 240 SC + Mero (0.1% rapeseed oil methyl ester) 120 g a.s./ha/m crown level. As for the experimental part: Fully-grown pear trees cv. “Conference” of crown height approx. 3.5 m are treated, in four replications, against Dasineura pyri. Here, the active substance Example (I-4) is tested as (150 OD) and (240 SC) together with 0.1% a.s. rapeseed oil methyl ester (Mero 733 1R) in a tank mix at the specified application rate against the commercial standard Endosulfan (350 EC) at the specified application rate. The application is carried out with a spray diffuser. Here, the treatment is effected with a water application rate of 1000 l/ha/m crown level. Two applications are carried out at an interval of 7 days.
The test is evaluated 9 days after treatment 2 by scoring the destruction rate of the larvae in the rolled leaves, using the Abbott method.

Assay [5] deals with oriental fruit moth (Laspeyresia molesta). Put plainly: Example 28: peach trees against oriental fruit moth. To be noted: 41 d after treatment, Pyrifroxyfen (35 WP) 123, Acetamiprid (30 SG) 168, (I-4) (150 OD) 153 g a.s./ha. As for the experimental part:
Approx. 10-year-old peach trees are treated, in four replications, against the oriental fruit moth (Laspeyresia molesta). The application is carried out with a knapsack sprayer which is operated with pressurized air. Here, the active substance (I-4) (150 OD) is tested against the commercial standards Pyriproxyfen (35 WP) and Acetamiprid (30 SG) at the specified application rates. The water application rate is 935 l/ha.
The test is evaluated 41 days after the treatment by scoring the destruction rate of the animals on the trees.

Assay [6] has as its system apple capsid bug (Plesiocoris rugicollis). The experiment in a line: Example 1B: apple trees against apple capsid bug. To be noted: 37 d after treatment, larvae on twigs, Deltamethrin (EC 025) 3.75, (I-4) (150 OD) 30 g a.s./ha/m crown level. As for the experimental part:
Apple trees cv. “Holsteiner Cox” which are approximately 14 years old are treated, in 3 replications, against the apple capsid bug (Plesiocoris rugicollis). Here, the active substance Example (I-4) (150 OD) is tested at the specified application rate against the commercial standard Deltamethrin liquid (EC 025) at the specified application rate. The application is carried out with a knapsack sprayer. Here, the treatment is effected with a water application rate of 500 l/ha/m crown level.
The test is evaluated 37 days after the treatment by scoring the destruction of the larvae on the twigs with the aid of the Abbott method.

Assay [7] concerns Leptinotarsa decemlineata. Put plainly: Example 23: potatoes against Leptinotarsa decemlineata. As for the experimental part: Plots approx. 10 m^2 in size which are planted with potatoes “Quarta” are treated, in three replications, against Leptinotarsa decemlineata. The application is carried out with a knapsack sprayer operated with pressurized air. Here, the active substance Example (I-4) (240 SC), in a tank mix together with 0.2% a.s. rapeseed oil methyl ester (500 EW) and the commercial standard Deltamethrin (100 EC), is tested at the specified application rate. The water application rate is 300 l/ha.
The test is evaluated 3, 8 and 20 days after the treatment by scoring the destruction rate of the animals (larvae) on the plants.

In assay [8] the test system is Dacus ciliatus. Put plainly: Example 22A: bottle gourds against Dacus ciliatus. The method, then: Plots approx. 10 m^2 in size which are planted with bottle gourds cv. “Waltham” are treated, in three replications, against Dacus ciliatus. The application is carried out with a motor-operated knapsack sprayer. Here, the active substance Example (I-4) (150 OD) and the commercial standard Fenthion (500 EC) are tested at the specified application rates. Three applications are carried out at in each case an interval of 7 days. The water application rate is approx. 500 l/ha.
The test is evaluated 8, 14 and 21 days after treatment 1 by scoring the infestation of the fruits.

Assay [9] deals with olive fruit fly (Dacus oleae). Put plainly: Example 22B: laboratory experiment, olives against olive fruit fly. Particulars: olives treated three days after oviposition; Imidacloprid (200 SL) 0.01 %, (I-4) (100 OD) 0.02 %, Fenthion (500 EC) 0.05 %; untreated 84.4. The method, then: In a laboratory experiment, 40 olives are treated, in four replications, against the olive fruit fly (Dacus oleae) three days after oviposition. Here, the active substance (I-4) (100 OD) and the commercial standards Fenthion (500 EC) and Imidacloprid (200 SL) are tested at the specified application rates.
The test is evaluated 14 days after oviposition by counting the number of feeding tunnels (larval development completed), while the absence of such feeding tunnels indicates the efficacy against the larvae.

In assay [10] the test system is Ceratitis capitata. Put plainly: Example 20: peach trees against Ceratitis capitata. To be noted: animals on fruits. As for the experimental part:
Peach trees cv. “Oom Sarel” which are approximately 10 years old are treated, in three replications, against Ceratitis capitata. The application is carried out with a high-pressure sprayer or a knapsack sprayer which is operated with pressurized air. Here, the active substance Example (I-4) (150 OD) and the commercial standard Fenthion (500 EC) are tested at the specified application rates. The water application rate is 2500 l/ha. Three applications are carried out at an interval of 7 and 19 days, respectively.
The test is evaluated 9 and 16 days after treatment 3 by scoring the destruction rate of the animals on the fruits with the aid of the Abbott formula.

Assay [11] deals with flea beetles (Phyllotreta sp.). Put plainly: Example 24: aubergines against flea beetles. To be noted: 7 d after the last of four treatments, larvae, Imidacloprid (100 SL) 100, (I-4) (100 OD) 70, Profenofos (500 EC) 500 g a.s./ha. As for the experimental part:
Plots approx. 12 m^2 in size which are planted with aubergines cv. “DLP” are treated, in three replications, against flea beetles (Phyllotreta sp.). The application is carried out with a knapsack sprayer which is operated with pressurized air. Here, the active substance Example (I-4) (100 OD) and the commercial standards Imidacloprid (100 SL) and Profenofos (500 EC) are applied at the specified application rates. Four applications are carried out at intervals of 7, 8 and 10 days, with a water application rate of 750 l/ha.
The test is evaluated 7 days after the last treatment by scoring the destruction rate of the larvae on the plants.

For assay [12], the system named is Thrips tabaci. The experiment in a line: Example 11: dwarf beans against Thrips tabaci. As for the experimental part: Plots approx. 26 m^2 in size which are planted with dwarf beans are treated 16 days after emergence against Thrips tabaci, in four replications. The application is carried out with a knapsack sprayer which is operated with pressurized air. Here, the active substances Example (I-2) (240 SC) (I-4) (240 SC) and Example (I-9) (240 SC), in a tank mix with 0.1% a.s. rapeseed oil methyl ester (500 EW), are tested against the commercial standard Profenofos (720 EC) at the specified application rates. The water application rate is 1000 l/ha. Two applications are carried out at an interval of 10 days.
The test is evaluated 5 and 11 days after the first treatment by scoring the destruction rate of the nymphs on the leaves.

Assay [13] has as its system Empoasca biguttula. The experiment in a line: Example 16: aubergines against Empoasca biguttula. The method, then:
Plots 10 m^2 in size which are planted with aubergines are treated, in three replications, against Empoasca biguttula. The application is carried out with a knapsack sprayer which is operated with pressurized air. Here, the active substance Example (I-4) (150 OD) is tested against the commercial standards Imidacloprid (SL 100) and Profenofos (500 EC) at the specified application rates. Two applications are carried out at an interval of 7 days. The water application rate is 750 l/ha.
The test is evaluated 2, 6 and 13 days after the first treatment by scoring the destruction rates of the animals (nymphs) on the plants.

With `N#C/N=C1\SCCN1Cc1ccc(Cl)nc1` [Thiacloprid], in [1], the “Efficacy (% Abbott) 55 d” value is recorded as 52.4 % Abbott. The “Efficacy (% Abbott) 10 d” value in assay [2] is recorded as 100 % Abbott.

With `O=S1OCC2C(CO1)C1(Cl)C(Cl)=C(Cl)C2(Cl)C1(Cl)Cl` (centres unmarked) [Endosulfan, endosulfan], the “Efficacy (% Abbott) 8 d” value in assay [3] is reported as 67.0 % Abbott. For the same compound, the “Efficacy (% Abbott) 9 d” value in [4] was 71.6 % Abbott.

For the compound `C/C(=N\C#N)N(C)Cc1ccc(Cl)nc1` [Acetamiprid], the “Efficacy (% Abbott) 41 d” value in assay [5] came to 35.8 % Abbott.

For `CC1(C)[C@H](C(=O)O[C@H](C#N)c2cccc(Oc3ccccc3)c2)[C@@H]1C=C(Br)Br` [Deltamethrin], the “Efficacy (% Abbott) 55 d” value in assay [1] was 77.1 % Abbott. For the same compound, the “Efficacy (%) Abbott 37 d” value in [6] is listed as 78%. In [7] (3 d after treatment, larvae, Deltamethrin (100 EC) 75, (I-4) (240 SC + 0.2% rapeseed oil methyl ester) 72 g a.s./ha), the “Efficacy (% Abbott) 3 d” value came to 100 % Abbott. Further, the “Efficacy (% Abbott) 8 d” value in [7] (8 d after treatment, Deltamethrin 75, (I-4) 72 g a.s./ha) is 100 % Abbott. Moreover, in assay [7] (20 d after treatment, Deltamethrin 75, (I-4) 72 g a.s./ha), the “Efficacy (% Abbott) 20 d” value was found to be 100 % Abbott.

As for `COP(=S)(OC)Oc1ccc(SC)c(C)c1` [Fenthion], the “Efficacy (% Abbott) 8 d” value in assay [8] (8 d after treatment 1, infestation of fruits, Fenthion (500 EC) 300, (I-4) (150 OD) 200 g a.s./ha, three applications, 7-day intervals) was found to be 59.6 % Abbott. Moreover, in assay [8] (14 d after treatment 1, Fenthion 300, (I-4) 200 g a.s./ha), the “Efficacy (% Abbott) 14 d” value was 48.9 % Abbott. For the same compound, the “Efficacy (% Abbott) 21 d” value in assay [8] (21 d after treatment 1, Fenthion 300, (I-4) 200 g a.s./ha) is recorded as 60.3 % Abbott. In addition, the “Number of feeding tunnels (%) 14 days after oviposition” value in assay [9] was 1.9%. In addition, in assay [10] (Fenthion 1700, (I-4) 100 g a.s./ha), the “Efficacy (% Abbott) 16 d after treatment 3” value turned out to be 88.9 % Abbott. Besides, the “Efficacy (% Abbott) 9 d after treatment 3” value in assay [10] (Fenthion (500 EC) 1700, (I-4) (150 OD) 100 g a.s./ha) was found to be 86.7 % Abbott.

`CC(COc1ccc(Oc2ccccc2)cc1)Oc1ccccn1` (centres unmarked) [Pyrifroxyfen, Pyriproxyfen]: in [5], the “Efficacy (% Abbott) 41 d” value was 39.0 % Abbott.

As to `CCCSP(=O)(OCC)Oc1ccc(Br)cc1Cl` (centres unmarked) [Profenofos], the “Efficacy (% Abbott) 7 d” value in assay [11] is 84 % Abbott. Besides, the “Efficacy (% Abbott) 5 d” value in assay [12] (5 d after first treatment, nymphs on leaves, Profenofos (720 EC) 1300, (I-9) 54, (I-2) 54, (I-4) 60 g a.s./ha, 240 SC + 0.1% rapeseed oil methyl ester) was determined as 80 % Abbott. Also, the “Efficacy (% Abbott) 11 d” value in assay [12] (11 d after first treatment (second application at 10 days), Profenofos 1300, (I-9) 54, (I-2) 54, (I-4) 60 g a.s./ha) worked out at 75 % Abbott. Also, the “Efficacy (% Abott) 2 d” value in assay [13] (2 d after first treatment, nymphs, Imidacloprid (SL 100) 30, (I-4) (150 OD) 50, Profenofos (500 EC) 500 g a.s./ha, two applications, interval 7 days) was 41.3 % Abott. Further, in assay [13] (6 d after first treatment, Imidacloprid 30, (I-4) 50, Profenofos 500 g a.s./ha), the “Efficacy (% Abott) 6 d” value was determined as 65.1 % Abott. The “Efficacy (% Abott) 13 d” value in [13] (13 d after first treatment, Imidacloprid 30, (I-4) 50, Profenofos 500 g a.s./ha) worked out at 53.8 % Abott.
